Legend:
GSK3α = biological target: T1, GSK3α (Homo sapiens, UniProt P49840); experiment: Z′-Lyte TR-FRET kinase assay, GSK3α; type: biochemical; conditions: 400 nM substrate, 0.03 μg/ml GSK3α; read-out: ATP EC50 (ATP titration) GSK3α
T1 construct: purchased PV3322/30387A
Experimental: To each well of a 384 well plate, 5 μl of 2X substrate/2X enzyme in 1X kinase reaction buffer was added. Then, 5 μl of 2X ATP in 1X kinase reaction buffer was added in order to initiate the kinase reaction. The plate was briefly mixed and the 10 μl kinase reaction was allowed to incubate for 60 minutes at room temperature. To each well, 5 μl of 3X chymotrypsin in development buffer B was added. The plate was briefly mixed and the 15 μl reaction was allowed to incubate for 60 minutes at room temperature. To each well, 5 μl of 4X Tb-labeled SA in stop buffer was added. The plate was briefly mixed and the 20 μl reactions read. […] The dichroic 2 mirror was used. A TR-FRET ratio=Em520/Em495 was calculated. An ATP titration was performed in order to determine the optimal amount of ATP to use per well for subsequent IC50 experiments. […] The assay was carried out using the general assay procedure listed above except with the following modification: a 2X ATP titration series was diluted 2 fold in 1X kinase buffer. […] The three fold titration of compounds was performed in a separate 384 well plate in 2X substrate (800 nM, therefore 1X=400 nM)/2X ATP (20 μM, therefore 1X=10 μM) in 1X kinase buffer/3% DMSO. Then 5 μl of the titration series of each compound was added to the appropriate wells in the 384 well assay plate. […]

GSK3β = biological target: T2, GSK3β (Homo sapiens, UniProt P49841); experiment: Z′-Lyte TR-FRET kinase assay, GSK3β; type: biochemical; conditions: 400 nM substrate, 0.25 μg/ml GSK3β; read-out: ATP EC50 (ATP titration) GSK3β
T2 construct: purchased PV3270/29135A
T2 sequence (P49841 whole entry): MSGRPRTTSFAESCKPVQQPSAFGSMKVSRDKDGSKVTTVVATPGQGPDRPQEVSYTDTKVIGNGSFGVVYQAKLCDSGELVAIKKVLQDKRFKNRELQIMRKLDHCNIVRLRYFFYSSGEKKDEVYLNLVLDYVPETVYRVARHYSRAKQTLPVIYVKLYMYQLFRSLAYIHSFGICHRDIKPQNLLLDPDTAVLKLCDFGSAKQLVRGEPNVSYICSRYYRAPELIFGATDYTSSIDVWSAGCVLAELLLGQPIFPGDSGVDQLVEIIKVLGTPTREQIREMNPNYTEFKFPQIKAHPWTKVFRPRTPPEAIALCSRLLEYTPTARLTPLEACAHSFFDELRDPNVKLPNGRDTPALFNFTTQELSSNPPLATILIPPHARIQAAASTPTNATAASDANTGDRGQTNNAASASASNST

T1 sequence (P49840 whole entry): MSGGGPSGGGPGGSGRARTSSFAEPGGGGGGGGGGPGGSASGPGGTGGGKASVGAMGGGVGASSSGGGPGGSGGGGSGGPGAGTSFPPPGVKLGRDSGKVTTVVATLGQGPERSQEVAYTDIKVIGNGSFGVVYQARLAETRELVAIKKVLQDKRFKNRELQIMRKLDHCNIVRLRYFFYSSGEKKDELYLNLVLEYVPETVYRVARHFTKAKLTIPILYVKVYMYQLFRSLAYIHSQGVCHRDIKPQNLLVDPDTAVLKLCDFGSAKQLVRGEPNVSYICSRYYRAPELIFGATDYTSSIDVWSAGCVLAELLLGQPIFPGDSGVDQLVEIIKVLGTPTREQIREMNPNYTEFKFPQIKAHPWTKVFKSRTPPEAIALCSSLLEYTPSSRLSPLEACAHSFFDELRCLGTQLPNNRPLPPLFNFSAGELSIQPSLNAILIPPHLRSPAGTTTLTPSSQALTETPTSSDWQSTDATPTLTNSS

In the case of `Nc1ncnc2c1ncn2[C@@H]1O[C@H](COP(=O)(O)OP(=O)(O)OP(=O)(O)O)[C@@H](O)[C@H]1O` [ATP], the EC50 (GSK3α) is reported as roughly 10 µM and the EC50 (GSK3β) is reported as roughly 10 µM.

Source: patent US7619059B2, “Bimolecular optical probes” (Life Technologies Corporation, priority 2003, dated 2009)
